Experimental data as given in patent US20230321086A1, “METHODS AND MATERIALS FOR INHIBITING NICOTINAMIDE PHOSPHORIBOSYLTRANSFERASE ACTIVITY” (Universiy of Pittsburgh - Of the Commonwealth System of …, priority 2020, published 2023).

Columns and labels:
A431 cells = experiment: Assay for total NADH and NAD+ measurements in cells; type: cell-based; design: C: change in NAD levels in response to test compound, shown as % of NAD activity in the absence of test compound: concentration or dose not given beside the values; details: percent of NAD level of untreated control cells (100 = no change)
Procedure: 2,000 cells/well and, at the same time, test compounds dissolved in media at the desired concentration were added to each well. The treated cells were incubated overnight in C02 incubator. The cells were washed 6 times with PBS with 1 mM CaCl2) and 1 mM MgCl2. In the last wash, 10 μL of PBS with 1 mM CaCl2) and 1 mM MgCl2 per well were left in each well. Immediately thereafter, 10 μL 0.4% dodecyltrimethylammonium bromide (DTAB) in phosphate buffer pH 8.0 as added, and the plates were shaked at 1000 rpm for 5 minutes. 60 μL reaction mix was added, and fluorescence at Ex/Em 530/585 was immediately monitored. A linear increase should be achieved with 8 cycles every 92 seconds, 10 number of flashes/well/cycle. The reaction mix was prepared per the following table, respecting the amount and order in which each component was added:
All assays were performed in A431 cells. Referring to the tables below, activity: “+” ≥25 μM, “++” ≥1 μM and <25 μM, and “+++”<1 μM.
(§1) In each table header, A: NAMPT enzyme inhibitory activity, IC50 (μM); B: Cellular NAD inhibitory activity, IC50 (μM); and C: change in NAD levels in response to test compound, shown as % of NAD activity in the absence of test compound. […] A percentage of 100 percent would indicate no increase or decrease in NAD levels as compared to that measured for untreated control cells, while a percentage of 50 percent would indicate a decrease in NAD levels of 50 percent as compared to that measured for untreated control cells.

NAMPT = NAMPT (Homo sapiens, UniProt P43490); experiment: Assay for in vitro NAMPT activity via NMN assessment; type: biochemical; details: read-out: A: NAMPT enzyme inhibitory activity, IC50
Sequence of NAMPT (P43490 whole entry, species assumed): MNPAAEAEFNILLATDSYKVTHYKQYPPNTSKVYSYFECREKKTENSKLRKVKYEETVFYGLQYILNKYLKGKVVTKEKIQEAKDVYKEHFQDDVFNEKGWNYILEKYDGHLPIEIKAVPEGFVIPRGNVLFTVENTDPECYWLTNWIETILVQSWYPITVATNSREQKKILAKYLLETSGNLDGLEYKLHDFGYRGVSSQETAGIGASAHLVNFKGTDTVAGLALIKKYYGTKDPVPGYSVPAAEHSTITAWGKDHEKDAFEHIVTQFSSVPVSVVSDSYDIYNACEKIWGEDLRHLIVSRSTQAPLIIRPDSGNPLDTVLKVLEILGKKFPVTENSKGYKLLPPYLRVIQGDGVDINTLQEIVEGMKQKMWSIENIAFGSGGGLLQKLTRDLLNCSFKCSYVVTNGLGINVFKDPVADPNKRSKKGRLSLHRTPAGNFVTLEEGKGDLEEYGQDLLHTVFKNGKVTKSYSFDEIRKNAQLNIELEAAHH
Procedure: The following were added to a well: 20 μL 2× test compound in Basic Buffer (0.02% BSA, 2 mM DTT, 12 mM MgCl2, 50 mM Tris pH7.5); 10 μL 8 μg/mL NAMPT, and 200 μM PRPP working solution (or PRPP working solution to background wells). 10 μL 100 μM NAM working solution was added to start the reaction. The plate was sealed and incubated for 45 minutes at 37° C. After incubation, 10 μL 20% acetophenone in DMSO, 10 μL 2N KOH, and 20 μL 88% formic acid were added. The plate was sealed and incubated for 30 minutes at 37° C. After incubation, fluorescence at Ex/Em 387/441 was read.
as §1

| Structure (SMILES) | IC50 (NAMPT) | C: change in NAD levels in response to test compound, shown as % of NAD activity in the absence of test compound (A431 cells) |
| --- | --- | --- |
| O=C(NCCCN1CCOCC1)Nc1ccc2nc(-c3ccc(F)cc3)c(-c3ccc(F)cc3)nc2c1 [BC19576] |  | 61% |
| CN1CCN(Cc2ccc3nc(-c4ccc(F)cc4)c(-c4ccc(F)cc4)nc3c2)CC1 [BC19577] |  | 41% |
| CN1CCN(C(=O)c2ccc3nc(-c4ccc(F)cc4)c(Nc4ccc(F)cc4)nc3c2)CC1 [BC19578] |  | 89% |
| CN1CCN(CCNC(=O)Nc2ccc3nc(-c4ccc(F)cc4)c(-c4ccc(F)cc4)nc3c2)CC1 [BC19616] |  | 31% |
| O=C(NCCCN1CCCC1=O)Nc1ccc2nc(-c3ccc(F)cc3)c(-c3ccc(F)cc3)nc2c1 [BC19617] |  | 58% |
| CNc1ncc(-c2ccc3nc(-c4ccc(F)cc4)c(-c4ccc(F)cc4)nc3c2)o1 [BC19619] |  | 55% |
| CN1CCN(C(=O)C2CCc3nc(-c4ccc(F)cc4)c(-c4ccc(F)cc4)nc3C2)CC1 (centres unmarked) [BC19663] |  | 18% |
| OCCCn1c(-c2ccc3nc(-c4ccc(F)cc4)c(-c4ccc(F)cc4)nc3c2)n[nH]c1=S [BC19664] |  | 70% |
| OCCCn1cnnc1-c1ccc2nc(-c3ccc(F)cc3)c(-c3ccc(F)cc3)nc2c1 [BC19665] |  | 58% |
| CN1CCN(C(=O)c2cc3nc(-c4ccc(F)cc4)c(-c4ccc(F)cc4)nc3cn2)CC1 [BC19666] |  | 70% |
| Cn1oc(-c2ccc3nc(-c4ccc(F)cc4)c(-c4ccc(F)cc4)nc3c2)cc1=O [BC19667] |  | 38% |
| C/N=C(\c1ccc2nc(-c3ccc(F)cc3)c(-c3ccc(F)cc3)nc2c1)N1CCN(C)CC1 [BC19668] |  | 31% |
| CN1CCN(C(=O)C2Cc3nc(-c4ccc(F)cc4)c(-c4ccc(F)cc4)nc3C2)CC1 [BC19723] |  | 54% |
| C#CCNC(=O)c1ccc2nc(-c3ccc(F)cc3)c(-c3cccc(CN4CCCC4)c3)nc2c1 [BC20223] | ≥ 25 µM |  |
| O=C(Nc1ccc2nc(-c3ccc(F)cc3)c(-c3ccc(F)cc3)nc2c1)NC1CCCNC1 (centres unmarked) [BC20225] | ≥ 25 µM |  |
| C#CCNC(=O)c1ccc2nc(-c3cccc(NC(C)=O)c3)c(-c3cccc(NC(C)=O)c3)nc2c1 [BC20227] | ≥ 25 µM |  |
| C#CCNC(=O)c1ccc2nc(-c3cccc(NC(=O)COC)c3)c(-c3cccc(NC(=O)COC)c3)nc2c1 [BC20228] | ≥ 25 µM |  |
| CN(C)CC(=O)Nc1cccc(-c2nc3cc(C(=O)N4CCN(C)CC4)ccc3nc2-c2ccc(F)cc2)c1 [BC20229] | ≥ 25 µM |  |
| CC(=O)NCc1cccc(-c2nc3cc(C(=O)N4CCN(C)CC4)ccc3nc2-c2ccc(F)cc2)c1 [BC20230] | ≥ 25 µM |  |

| Structure (SMILES) | IC50 (NAMPT) | C: change in NAD levels in response to test compound, shown as % of NAD activity in the absence of test compound (A431 cells) |
| --- | --- | --- |
| CN1CCN(C(=O)c2ccc3nc(-c4ccc(F)cc4)c(-c4cccc(CNS(C)(=O)=O)c4)nc3c2)CC1 [BC20231] | ≥ 25 µM |  |
| CN1CCN(Cc2cccc(-c3nc4cc(C(=O)N5CCN(C)CC5)ccc4nc3-c3ccc(F)cc3)c2)CC1 [BC20232] | ≥ 25 µM |  |
| C#CCNC(=O)c1ccc2nc(-c3ccc(F)cc3)c(-c3cccc(CN(C)C)c3)nc2c1 [BC20233] | ≥ 25 µM |  |
| C#CCNC(=O)c1ccc2nc(-c3cccc(CN(C)C)c3)c(-c3ccc(F)cc3)nc2c1 [BC20234] | ≥ 25 µM |  |
| CN1CCCC(NC(=O)Nc2ccc3nc(-c4ccc(F)cc4)c(-c4ccc(F)cc4)nc3c2)C1 (centres unmarked) [BC20237] | ≥ 25 µM |  |
| CC(=O)N1CCCC(NC(=O)Nc2cnc3nc(-c4ccc(F)cc4)c(-c4ccc(F)cc4)nc3c2)C1 (centres unmarked) [BC20239] | ≥ 25 µM |  |
| CN1CCN(C(=O)c2ccc3nc(-c4ccc(F)cc4)c(-c4cccc(CO)c4)nc3c2)CC1 [BC20240] | ≥ 25 µM |  |
| CC(=O)Nc1cccc(-c2nc3ccc(C(=O)N4CCN(C)CC4)cc3nc2-c2cccc(NC(C)=O)c2)c1 [BC20241] | ≥ 25 µM |  |
| CN1CCN(C(=O)c2ccc3nc(-c4cccc(CN5CCCC5)c4)c(-c4cccc(CN5CCCC5)c4)nc3c2)CC1 [BC20242] | ≥ 25 µM |  |
| CN1CCN(Cc2cccc(-c3nc4ccc(C(=O)N5CCN(C)CC5)cc4nc3-c3cccc(CN4CCN(C)CC4)c3)c2)CC1 [BC20243] | ≥ 25 µM |  |
| C#CCNC(=O)c1ccc2nc(-c3ccc(F)cc3)c(-c3cccc(N(C)C)c3)nc2c1 [BC20244] | ≥ 25 µM |  |
| COCC(=O)Nc1cccc(-c2nc3ccc(C(=O)N4CCN(C)CC4)cc3nc2-c2ccc(F)cc2)c1 [BC20245] | ≥ 25 µM |  |
| CN1CCN(C(=O)c2ccc3nc(-c4cccc(N(C)C)c4)c(-c4ccc(F)cc4)nc3c2)CC1 [BC20246] | ≥ 25 µM |  |
| CN1CCN(C(=O)c2ccc3nc(-c4cccc(CN5CCCC5)c4)c(-c4ccc(F)cc4)nc3c2)CC1 [BC20248] | ≥ 25 µM |  |
| CN1CCN(Cc2cccc(-c3nc4ccc(C(=O)N5CCN(C)CC5)cc4nc3-c3ccc(F)cc3)c2)CC1 [BC20249] | ≥ 25 µM |  |
| O=C(NCc1ccc2nc(-c3ccc(F)cc3)c(-c3ccc(F)cc3)nc2c1)NC1CCCNC1 (centres unmarked) [BC20250] | ≥ 25 µM |  |
| CN1CCCC(NC(=O)NCc2ccc3nc(-c4ccc(F)cc4)c(-c4ccc(F)cc4)nc3c2)C1 (centres unmarked) [BC20251] | ≥ 25 µM |  |
| CC(=O)N1CCCC(NC(=O)NCc2ccc3nc(-c4ccc(F)cc4)c(-c4ccc(F)cc4)nc3c2)C1 (centres unmarked) [BC20252] | ≥ 25 µM |  |

More lines, main results first:

| IC50 (NAMPT) | Structure (SMILES) | C: change in NAD levels in response to test compound, shown as % of NAD activity in the absence of test compound (A431 cells) |
| --- | --- | --- |
| ≥ 25 µM | O=C(NCCN1CCCC1)c1cnc2nc(-c3ccc(F)cc3)c(-c3ccc(F)cc3)nc2c1 [BC20202] |  |
| 1 to 25 µM | O=C(NCc1cccnc1)c1cnc2nc(-c3ccc(F)cc3)c(-c3ccc(F)cc3)nc2c1 [BC20203] |  |
| ≥ 25 µM | O=C(NCc1ccncc1)c1cnc2nc(-c3ccc(F)cc3)c(-c3ccc(F)cc3)nc2c1 [BC20204] |  |
| < 1 µM | O=C(NCCc1ccncc1)c1cnc2nc(-c3ccc(F)cc3)c(-c3ccc(F)cc3)nc2c1 [BC20206] |  |
| ≥ 25 µM | O=C(NCc1ccccc1)Nc1cnc2nc(-c3ccc(F)cc3)c(-c3ccc(F)cc3)nc2c1 [BC20207] |  |
| ≥ 25 µM | CC(=O)Nc1cccc(-c2nc3cc(C(=O)N4CCN(C)CC4)ccc3nc2-c2ccc(F)cc2)c1 [BC20208] |  |
| ≥ 25 µM | COCC(=O)Nc1cccc(-c2nc3cc(C(=O)N4CCN(C)CC4)ccc3nc2-c2ccc(F)cc2)c1 [BC20209] |  |
| ≥ 25 µM | CN1CCN(C(=O)c2ccc3nc(-c4ccc(F)cc4)c(-c4cccc(NS(C)(=O)=O)c4)nc3c2)CC1 [BC20210] |  |
| ≥ 25 µM | C#CCNC(=O)c1ccc2nc(-c3ccc(F)cc3)c(-c3cccc(NC(=O)COC)c3)nc2c1 [BC20211] |  |
| ≥ 25 µM | C#CCNC(=O)c1ccc2nc(-c3ccc(F)cc3)c(-c3cccc(NS(C)(=O)=O)c3)nc2c1 [BC20212] |  |
| ≥ 25 µM | C#CCNC(=O)c1ccc2nc(-c3ccc(F)cc3)c(-c3cccc(NC(=O)CN(C)C)c3)nc2c1 [BC20214] |  |
| ≥ 25 µM | CN(C)Cc1cccc(-c2nc3cc(C(=O)N4CCN(C)CC4)ccc3nc2-c2ccc(F)cc2)c1 [BC20215] |  |
| 1 to 25 µM | CC(=O)N1CCCC(NC(=O)Nc2ccc3nc(-c4ccc(F)cc4)c(-c4ccc(F)cc4)nc3c2)C1 (centres unmarked) [BC20217] |  |
| ≥ 25 µM | O=C1NCCCN1c1ccc2nc(-c3ccc(F)cc3)c(-c3ccc(F)cc3)nc2c1 [BC20218] |  |
| ≥ 25 µM | O=C1N(Cc2cccnc2)CCCN1c1ccc2nc(-c3ccc(F)cc3)c(-c3ccc(F)cc3)nc2c1 [BC20219] |  |
| ≥ 25 µM | C#CCNC(=O)c1ccc2nc(-c3ccc(F)cc3)c(-c3cccc(CO)c3)nc2c1 [BC20220] |  |
| ≥ 25 µM | COCC(=O)Nc1cccc(-c2nc3ccc(C(=O)N4CCN(C)CC4)cc3nc2-c2cccc(NC(=O)COC)c2)c1 [BC20221] |  |
| ≥ 25 µM | C#CCNC(=O)c1ccc2nc(-c3ccc(F)cc3)c(-c3cccc(NC(C)=O)c3)nc2c1 [BC20222] |  |
| 1 to 25 µM | O=C1N(Cc2ccncc2)CCCN1c1ccc2nc(-c3ccc(F)cc3)c(-c3ccc(F)cc3)nc2c1 [BC20226] |  |
| 1 to 25 µM | O=C(NCc1cccnc1)NCc1ccc2nc(-c3ccc(F)cc3)c(-c3ccc(F)cc3)nc2c1 [BC20236] |  |
| 1 to 25 µM | CS(=O)(=O)N1CCCC(NC(=O)Nc2ccc3nc(-c4ccc(F)cc4)c(-c4ccc(F)cc4)nc3c2)C1 (centres unmarked) [BC20238] |  |
| 1 to 25 µM | C#CCNC(=O)c1ccc2nc(-c3cccc(NS(C)(=O)=O)c3)c(-c3ccc(F)cc3)nc2c1 [BC20247] |  |
